Data reported in patent publication US20160046582A1 (Teva Pharmaceutical Industries Ltd., priority 2014, published 2016).
Read-outs that look alike come from different tables or passages of the source. Blank lines part the entries; values can stand above or below the molecule they belong to.

What was measured:
[1] = cited from earlier work
[2] = Solubility in water (description of drug substance); assay type: physicochemical
Description: The solubility terms are defined below, in accordance with the United States Pharmacopoeia XXV.

[3] = Tapped density of powder (Quantachrome Dual Autotap, 1250 taps); assay type: physicochemical; conditions: production scale
Description: • 1. Put the same cylinder used to calculate Bulk Density in a Quantachrome Dual Autotap instrument; • 2. Perform 1250 taps; • 3. Read the tapped volume (Vf) to the nearest graduated unit; • 4. Calculate the tapped density in g/ml according to the following equation: TD=M/Vf; • 5. Perform steps 1-4 again and report the average data of duplicates.

[4] = Particle size distribution by Malvern laser diffraction (Mastersizer S); assay type: physicochemical; conditions: for PSD by Malvern D(0.9) / PSD by Malvern d(0.1) / PSD by Malvern d(0.5): modified pilot scale, 2.5 kg batch
Experimental: The particle size distributions were measured by Malvern Laser Diffraction, using the Mastersizer S model. Laser diffraction relies on the fact that diffraction angle of light is inversely proportional to particle size. Properties of particles are measured and interpreted as measurements of a sphere (a sphere being the only shape that can be described by one unique number). In addition, laser diffraction calculates a particle size distribution based around volume terms, thus eliminating particle count from the determination of particle size. The Mastersizer S model measures particles using a single technique and a single range setting.
D(0.1) is the particle size, in microns, below which 10% by volume distribution of the population is found. D(0.5) is the particle size, in microns, below which 50% by volume distribution of the population is found. D(0.9) is the particle size, in microns, below which 90% by volume distribution of the population is found.

Bulk density of powder = assay type: physicochemical; conditions: production scale
Experimental: • 1. Mix powder; • 2. Tare a 50 ml empty cylinder on a 0.01 g sensitivity balance; • 3. Transfer the powder, without compacting, to the cylinder being held at approximately a 45 degree angle to achieve an untapped apparent volume of 40 to 50 ml. • 4. Bring the cylinder containing the sample to a vertical position by a sharp move in order to level the volume for reading. • 5. Read the apparent volume (Va) to the nearest graduated unit; • 6. Weigh the cylinder with sample (the balance gives sample weight M); • 7. Calculate bulk density in g/ml according to the following equation: BD=M/Va; • 8. Perform steps 1-7 again and report the average data of duplicates.

[5] = prior art examples; cited from earlier work
[6] = In vivo MN (Covance study No. 8246631)
[7] = In vitro AMES test (CRL studies No. 962723 and No. 963892); assay type: cell-based; conditions: MCQ: pre-incubation method, CRL study No. 962723, MCQME: CRL study No. 963892
[8] = tested on: acute experimental autoimmune encephalomyelitis (aEAE) model; conditions: in vivo; cited from earlier work
[9] = tested on: active MRI lesions in relapsing MS; conditions: cited from earlier work
[10] = Chemical stability observed on handling or purification; assay type: physicochemical; conditions: most organic solvents and aqueous acidic medium
Hygroscopicity = assay type: physicochemical; conditions: exposure to air
[11] = cited from earlier work; remark: listed apart in the source
[12] = laboratory scale recrystallization, 25 g
[13] = starting material of the recrystallization
[14] = laboratory scale, 25 g batch, prior art

SMILES: CCN(C(=O)c1c([O-])c2c(Cl)cccc2n(C)c1=O)c1ccccc1.[Na+] [Laquinimod sodium]
- oral bioavailability [1]: high
- solubility in water [2]: freely soluble

SMILES: CCN(C(=O)c1c([O-])c2c(Cl)cccc2n(C)c1=O)c1ccccc1.[Na+] [Batch C]
- Tapped Density [3]: 0.609 g/mL
- PSD D(0.1) ([4]; production scale): 4.1 μm
- PSD D(0.5) ([4]; production scale): 14.0 μm
- PSD D(0.9) ([4]; production scale): 32.0 μm
- Bulk Density (Bulk density of powder): 0.308 g/mL

SMILES: CCN(C(=O)c1c([O-])c2c(Cl)cccc2n(C)c1=O)c1ccccc1.[Na+] [Laboratory Scale Batch A]
- PSD D(0.1) [4, 12]: 2.3 μm
- PSD D(0.5) [4, 12]: 10.8 μm
- PSD D(0.9) [4, 12]: 32.7 μm

SMILES: CCN(C(=O)c1c([O-])c2c(Cl)cccc2n(C)c1=O)c1ccccc1.[Na+] [Example 13 of U.S. Pat. No. 7,884,208]
- Tapped Density (in words) [5]: high

- in vivo MN [6]: negative in the in vivo MN
SMILES: COC(=O)c1c(O)c2c(Cl)cccc2n(C)c1=O [MCQME, methyl 5-chloro-4-hydroxy-1-methyl-2-oxo-1,2-dihydroquinoline-3-carboxylate]
- AMES test genotoxic activity [7]: Weak genotoxic activity in the in vitro

SMILES: CCN(C(=O)c1c(O)c2c(Cl)cccc2n(C)c1=O)c1ccccc1 [Laquinimod, N-ethyl-N-phenyl-1,2,-dihydro-4-hydroxy-5-chloro-1-methyl-2-oxoquinoline-3-carboxamide]
- efficacy in aEAE model [8]: effective
- development of active MRI lesions [9]: can reduce development of active MRI lesions

SMILES: CCN(C(=O)c1c([O-])c2c(Cl)cccc2n(C)c1=O)c1ccccc1.[Na+] [Batch D]
- PSD D(0.5) ([4]; production scale): 14.7 μm
- PSD D(0.9) ([4]; production scale): 33.6 μm
- Bulk Density (Bulk density of powder): 0.288 g/mL

- stability in solvents [10]: unstable
SMILES: CCN(C(=O)c1c(O)c2c(O)cccc2n(C)c1=O)c1ccccc1 [Batch 5-HLAQ, N-ethyl-4,5-dihydroxy-1-methyl-2-oxo-N-phenyl-1,2-dihydroquinoline-3-carboxamide]

SMILES: Cn1c(=O)cc(O)c2c(Cl)cccc21 [MCQ, 5-chloro-4-hydroxy-1-methylquinolin-2(1H)-one]
- AMES test genotoxic activity [7]: AMES data negative in the pre-incubation

- hygroscopicity (Hygroscopicity): high hygroscopicity
SMILES: CCN(C(=O)c1c(O)c2c(N(C)C[C@H](O)[C@@H](O)[C@H](O)[C@H](O)CO)cccc2n(C)c1=O)c1ccccc1 (stereo in doubt) [MEG-LAQ, N-ethyl-4-hydroxy-1-methyl-5-(methyl(2,3,4,5,6-pentahydroxyhexyl)amino)-2-oxo-N-phenyl-1,2-dihydroquinoline-3-carboxamide]

SMILES: CCN(C(=O)c1c([O-])c2c(Cl)cccc2n(C)c1=O)c1ccccc1.[Na+] [Batch E]
- Tapped Density [3]: 0.460 g/mL
- PSD D(0.1) ([4]; production scale): 2.5 μm
- PSD D(0.5) ([4]; production scale): 9.5 μm
- PSD D(0.9) ([4]; production scale): 21.0 μm
- Bulk Density (Bulk density of powder): 0.245 g/mL

SMILES: CCN(C(=O)c1c([O-])c2c(Cl)cccc2n(C)c1=O)c1ccccc1.[Na+] [Pilot Scale Batch A]
- PSD by Malvern D(0.9) [4]: 33.8 um
- PSD by Malvern d(0.1) [4]: 3.3 um
- PSD by Malvern d(0.5) [4]: 12.9 um

SMILES: CCN(C(=O)c1c([O-])c2c(Cl)cccc2n(C)c1=O)c1ccccc1.[Na+] [Pilot Scale Batch B]
- PSD by Malvern D(0.9) [4]: 33.9 um
- PSD by Malvern d(0.1) [4]: 4.1 um
- PSD by Malvern d(0.5) [4]: 13.5 um

SMILES: CCN(C(=O)c1c([O-])c2c(Cl)cccc2n(C)c1=O)c1ccccc1.[Na+] [crude laquinimod sodium]
- particle size d(0.1) [4, 13]: 1-2 μ
- particle size d(0.5) [4, 13]: 6-11 μ
- particle size d(0.9) [4, 13]: 20-35 μ

SMILES: CCN(C(=O)c1c([O-])c2c(Cl)cccc2n(C)c1=O)c1ccccc1.[Na+] [Laboratory Scale Batch B]
- PSD D(0.1) [4, 12]: 2.6 μm
- PSD D(0.5) [4, 12]: 12.4 μm
- PSD D(0.9) [4, 12]: 34.3 μm

SMILES: CCN(C(=O)c1c([O-])c2c(Cl)cccc2n(C)c1=O)c1ccccc1.[Na+] [Example 14 of U.S. Pat. No. 7,884,208]
- Tapped Density (in words) [5]: undesired
- size of 10% or more of the total amount by volume of the particles ([11]; prior art example): less than 5 microns

SMILES: CCN(C(=O)c1c([O-])c2c(Cl)cccc2n(C)c1=O)c1ccccc1.[Na+] [Example 15 from U.S. Pat. No. 7,884,208]
- PSD by Malvern D(0.9) [11, 14]: 51.8 um
- PSD by Malvern d(0.1) [11, 14]: 6.1 um
- PSD by Malvern d(0.5) [11, 14]: 21.2 um
